These results are taken from patent US20260125400A1, “TYK2 DEGRADERS AND USES THEREOF” (Kymera Therapeutics, Inc., priority 2023, published 2026).

This assay deals with T1, TYK2 (Homo sapiens, UniProt P29597).
T1 construct: Degradation of TYK2 in cells was quantitatively measured using Meso Scale Discovery (MSD) technology; endogenous in cells; host or cells: OCI-LY10
The assay is described as follows: TYK2 MSD degradation in OCI-LY10 cells. Type of assay: cell-based. The following applies: OCI-LY10 cells, 4 to 24 hours incubation; for DC50: read-out: TYK2 MSD OCI-LY10 Rel-DC50. The method in brief: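 Cellular TYK2 levels were measured by Meso Scale Discovery sandwich detection in RIPA lysates of OCI-LY10 cells exposed 4 to 24 hours at 37° C to nine 1:3 compound doses starting at 1 to 10 μM final; dose-response fitted by four-parameter regression.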

T1 sequence (P29597 whole entry): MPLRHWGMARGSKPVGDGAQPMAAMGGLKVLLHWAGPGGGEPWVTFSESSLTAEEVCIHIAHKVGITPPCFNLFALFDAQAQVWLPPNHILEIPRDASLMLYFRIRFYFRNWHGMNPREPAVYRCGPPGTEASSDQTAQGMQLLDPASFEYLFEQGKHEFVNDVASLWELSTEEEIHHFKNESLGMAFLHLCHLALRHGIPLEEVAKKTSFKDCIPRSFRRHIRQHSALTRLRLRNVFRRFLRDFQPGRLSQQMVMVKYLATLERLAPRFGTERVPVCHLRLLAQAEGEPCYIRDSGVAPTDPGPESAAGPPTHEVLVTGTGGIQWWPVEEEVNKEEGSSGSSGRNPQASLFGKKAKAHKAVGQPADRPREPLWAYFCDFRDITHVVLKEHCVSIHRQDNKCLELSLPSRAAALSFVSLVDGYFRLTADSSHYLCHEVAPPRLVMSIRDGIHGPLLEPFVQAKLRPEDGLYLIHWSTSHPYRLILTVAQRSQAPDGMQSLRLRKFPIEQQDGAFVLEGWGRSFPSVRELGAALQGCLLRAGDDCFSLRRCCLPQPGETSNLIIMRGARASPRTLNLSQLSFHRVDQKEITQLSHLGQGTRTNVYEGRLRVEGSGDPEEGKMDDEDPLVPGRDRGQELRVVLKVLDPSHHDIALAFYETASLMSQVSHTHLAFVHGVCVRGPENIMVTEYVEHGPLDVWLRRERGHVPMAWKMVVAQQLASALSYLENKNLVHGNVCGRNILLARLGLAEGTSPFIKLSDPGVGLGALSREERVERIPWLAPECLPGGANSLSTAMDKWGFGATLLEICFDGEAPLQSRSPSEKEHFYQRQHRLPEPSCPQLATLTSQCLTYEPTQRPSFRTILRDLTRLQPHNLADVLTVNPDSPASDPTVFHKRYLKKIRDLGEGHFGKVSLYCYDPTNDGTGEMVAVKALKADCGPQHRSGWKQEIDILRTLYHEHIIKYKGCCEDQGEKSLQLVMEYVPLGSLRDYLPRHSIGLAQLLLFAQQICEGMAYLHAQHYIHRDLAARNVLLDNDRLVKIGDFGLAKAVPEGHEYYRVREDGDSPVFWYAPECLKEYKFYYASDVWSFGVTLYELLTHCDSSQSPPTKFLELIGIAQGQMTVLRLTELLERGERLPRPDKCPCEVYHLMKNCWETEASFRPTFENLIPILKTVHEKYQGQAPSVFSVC

For the compound `CNc1cc(N2CCc3c(-c4ccc(CN5CC6(CCN(C(=O)c7ccc(Cl)c(C8CCC(=O)NC8=O)c7)CC6(F)F)C5)cn4)cccc32)nn2c(C(=O)N[C@@H]3C[C@@H]3F)cnc12` (stereo partly drawn) [I-502], the “TYK2 MSD OCI-LY10 Dmax %” value is listed as “A (A (>90%))” and the 50% degradation concentration (DC50) is under 1 nM.

For the compound `CNc1cc(N2CCc3c(N4CCC(CN5CCC6(CC5)CCN(c5ccc(Cl)c(C7CCC(=O)NC7=O)c5)CC6)CC4)cccc32)nn2c(C(=O)N[C@@H]3C[C@@H]3F)cnc12` (stereo partly drawn) [I-513], the “TYK2 MSD OCI-LY10 Dmax %” value was “D (D (<50%))” and the DC50 was 10 to 100 nM.

Turning to `CNc1cc(N2CCc3c(-c4ccc(OCCC5CCN(C(=O)c6ccc(Cl)c(N7CCC(=O)NC7=O)c6)CC5)cn4)cccc32)nn2c(C(=O)N[C@@H]3C[C@@H]3F)cnc12` [I-617], the “TYK2 MSD OCI-LY10 Dmax %” value was “C (C (75 to 50%))” and the DC50 is under 10 nM.

Regarding `CNc1cc(N2CCc3c(-c4ccc(CN5CC6(CCN(C(=O)c7cc(Cl)c(C)c(N8CCC(=O)NC8=O)c7)CC6(F)F)C5)cn4)cccc32)nn2c(C(=O)N[C@@H]3C[C@@H]3F)cnc12` [I-634], the “TYK2 MSD OCI-LY10 Dmax %” value is “A (A (>90%))” and the DC50 is under 1 nM.

As for `CNc1cc(N2CCc3c(-c4ccc(CN5CC6(CCN(C(=O)c7ccc(Cl)c(N8CCC(=O)NC8=O)c7)CC6(F)F)C5)cn4)cccc32)nn2c(C(=O)NC3CC(F)(F)C3)cnc12` [I-653], the “TYK2 MSD OCI-LY10 Dmax %” value is “B (B (90 to >75%))” and the half-maximal degradation concentration (DC50) is under 10 nM.

In the case of `CNc1cc(N2CCc3c(-c4ccc(CC5CCC6(CC5)CCN(C(=O)c5ccc(Cl)c(N7CCC(=O)NC7=O)c5)CC6)cn4)cccc32)nn2c(C(=O)N[C@@H]3C[C@@H]3F)cnc12` [I-654], the “TYK2 MSD OCI-LY10 Dmax %” value is “B (B (90 to >75%))” and the DC50 is under 10 nM.

Turning to `CNc1cc(N2CCc3c(-c4ccc(CN5CCC6(CCN(C(=O)c7cc(C)c(Cl)c(N8CCC(=O)NC8=O)c7)CC6)C(F)(F)C5)cn4)cccc32)nn2c(C(=O)N[C@@H]3C[C@@H]3F)cnc12` [I-655], the “TYK2 MSD OCI-LY10 Dmax %” value is on record as “B (B (90 to >75%))” and the DC50 is under 10 nM.

Turning to `CNc1cc(N2CCc3c(-c4ccc(CN5CCC6(CCN(C(=O)c7cc(F)c(Cl)c(N8CCC(=O)NC8=O)c7)CC6)C(F)(F)C5)cn4)cccc32)nn2c(C(=O)N[C@@H]3C[C@@H]3F)cnc12` [I-656], the “TYK2 MSD OCI-LY10 Dmax %” value was “B (B (90 to >75%))” and the 50% degradation concentration (DC50) was under 1 nM.

Take `CNc1cc(N2CCc3c(-c4ccc(CN5CCC6(CCN(C(=O)c7cc(F)c(C)c(N8CCC(=O)NC8=O)c7)CC6)C(F)(F)C5)cn4)cccc32)nn2c(C(=O)N[C@@H]3C[C@@H]3F)cnc12` [I-657]: the “TYK2 MSD OCI-LY10 Dmax %” value is reported as “A (A (>90%))” and the DC50 is under 1 nM.

`CNc1cc(N2CCc3c(CC4CCN(C5CCC6(CCN(C(=O)c7ccc(Cl)c(N8CCC(=O)NC8=O)c7)CC6)OC5)CC4)cccc32)nn2c(C(=O)N[C@@H]3C[C@@H]3F)cnc12` (stereo partly drawn) [I-685]: the “TYK2 MSD OCI-LY10 Dmax %” value is “C (C (75 to 50%))” and the DC50 is under 10 nM.

As to `CNc1cc(N2CCc3c(CC4CCN(C5CCC6(CC5)CCN(C(=O)c5ccc(Cl)c(N7CCC(=O)NC7=O)c5)CC6)CC4(F)F)cccc32)nn2c(C(=O)N[C@@H]3C[C@@H]3F)cnc12` (stereo partly drawn) [I-686], the “TYK2 MSD OCI-LY10 Dmax %” value is “B (B (90 to >75%))” and the half-maximal degradation concentration (DC50) is under 10 nM.

Regarding `CNc1cc(N2CCc3c(CCN4CCC(N5CCC6(CCN(C(=O)c7ccc(Cl)c(N8CCC(=O)NC8=O)c7)CC6)CC5)C(F)(F)C4)cccc32)nn2c(C(=O)NC3CC3F)cnc12` (stereo not drawn) [I-687], the “TYK2 MSD OCI-LY10 Dmax %” value was “B (B (90 to >75%))” and the 50% degradation concentration (DC50) was under 1 nM.

`CNc1cc(N2CCc3c(CC4CN(C5CCN(C6CCN(C(=O)c7ccc(Cl)c(N8CCC(=O)NC8=O)c7)CC6)CC5(F)F)C4)cccc32)nn2c(C(=O)N[C@@H]3C[C@@H]3F)cnc12` (stereo partly drawn) [I-698]: the “TYK2 MSD OCI-LY10 Dmax %” value was “B (B (90 to >75%))” and the DC50 is under 1 nM.

Consider `CNc1cc(N2CCc3c(C#CCN4CCC(N5CCC6(CCN(C(=O)c7ccc(Cl)c(N8CCC(=O)NC8=O)c7)CC6)CC5)C(F)(F)C4)cccc32)nn2c(C(=O)N[C@@H]3C[C@@H]3F)cnc12` (stereo partly drawn) [I-700], for which the “TYK2 MSD OCI-LY10 Dmax %” value is “B (B (90 to >75%))” and the 50% degradation concentration (DC50) was under 1 nM.

For `CNc1cc(N2CCc3c(C#CCN4CCC(N5CC6(CCN(C(=O)c7ccc(Cl)c(N8CCC(=O)NC8=O)c7)CC6)C5)C(F)(F)C4)cccc32)nn2c(C(=O)N[C@@H]3C[C@@H]3F)cnc12` (stereo partly drawn) [I-701], the “TYK2 MSD OCI-LY10 Dmax %” value was “A (A (>90%))” and the DC50 is under 1 nM.

In the case of `CNc1cc(N2CCc3c(C#CCN4CCC(N5CCC6(CC5)CN(C(=O)c5ccc(Cl)c(N7CCC(=O)NC7=O)c5)C6)C(F)(F)C4)cccc32)nn2c(C(=O)N[C@@H]3C[C@@H]3F)cnc12` (stereo partly drawn) [I-702], the “TYK2 MSD OCI-LY10 Dmax %” value is reported as “B (B (90 to >75%))” and the 50% degradation concentration (DC50) was under 1 nM.

For the compound `CNc1cc(N2CCc3c(CN4CCC(N5CCC(N6CCN(C(=O)c7ccc(Cl)c(N8CCC(=O)NC8=O)c7)CC6)CC5)C(F)(F)C4)cccc32)nn2c(C(=O)N[C@@H]3C[C@@H]3F)cnc12` (stereo partly drawn) [I-707], the “TYK2 MSD OCI-LY10 Dmax %” value is “D (D (<50%))” and the half-maximal degradation concentration (DC50) is under 10 nM.

`CNc1cc(N2CCc3c(CC4CCC(N5CCC(N6CCN(C(=O)c7ccc(Cl)c(N8CCC(=O)NC8=O)c7)CC6)C(F)(F)C5)CC4)cccc32)nn2c(C(=O)NC3CC3F)cnc12` (stereo not drawn) [I-708]: the “TYK2 MSD OCI-LY10 Dmax %” value was “D (D (<50%))” and the DC50 is under 1 nM.

Take `CNc1cc(N2CCc3c(-c4cc(CN5CCN(c6cc7c(cc6F)c(N6CCC(=O)NC6=O)nn7C)CC5)ccn4)cccc32)nn2c(C(=O)N[C@@H]3C[C@@H]3F)cnc12` [I-709]: the “TYK2 MSD OCI-LY10 Dmax %” value is on record as “D (D (<50%))” and the DC50 was under 10 nM.

Turning to `CNc1cc(N2CCc3c(CN4CCC(N5CC(CN6CCN(C(=O)c7ccc(Cl)c(N8CCC(=O)NC8=O)c7)CC6)C5)C(F)(F)C4)cccc32)nn2c(C(=O)N[C@@H]3C[C@@H]3F)cnc12` (stereo partly drawn) [I-710], the “TYK2 MSD OCI-LY10 Dmax %” value was “B (B (90 to >75%))” and the DC50 is under 10 nM.

Take `CNc1cc(N2CCc3c(CN4CCC(N5CCC6(CCN(C(=O)c7cc(Cl)c(C)c(N8CCC(=O)NC8=O)c7)CC6)CC5)C(F)(F)C4)cccc32)nn2c(C(=O)N[C@@H]3C[C@@H]3F)cnc12` (stereo partly drawn) [I-711]: the “TYK2 MSD OCI-LY10 Dmax %” value was “B (B (90 to >75%))” and the DC50 is under 10 nM.

Consider `CNc1cc(N2CCc3c(CN4CCC(N5CCC6(CCN(C(=O)c7cc(F)c(Cl)c(N8CCC(=O)NC8=O)c7)CC6)CC5)C(F)(F)C4)cccc32)nn2c(C(=O)N[C@@H]3C[C@@H]3F)cnc12` (stereo partly drawn) [I-712], for which the “TYK2 MSD OCI-LY10 Dmax %” value is “B (B (90 to >75%))” and the DC50 is under 1 nM.

In the case of `CNc1cc(N2CCc3c(CN4CCC(N5CCC6(CCN(C(=O)c7cc(C)c(Cl)c(N8CCC(=O)NC8=O)c7)CC6)CC5)C(F)(F)C4)cccc32)nn2c(C(=O)N[C@@H]3C[C@@H]3F)cnc12` (stereo partly drawn) [I-713], the “TYK2 MSD OCI-LY10 Dmax %” value is listed as “B (B (90 to >75%))” and the DC50 was under 10 nM.

Regarding `CNc1cc(N2CCc3c(CN4CC[C@@H](N5CCC6(CCN(C(=O)c7ccc(Cl)c(N8CCC(=O)NC8=O)c7)CC6)CC5)C(F)(F)C4)cccc32)nn2c(C(=O)N[C@@H]3C[C@@H]3F)cnc12` [I-714], the “TYK2 MSD OCI-LY10 Dmax %” value is “B (B (90 to >75%))” and the half-maximal degradation concentration (DC50) was under 1 nM.

Consider `CNc1cc(N2CCc3c(CN4CC[C@H](N5CCC6(CCN(C(=O)c7ccc(Cl)c(N8CCC(=O)NC8=O)c7)CC6)CC5)C(F)(F)C4)cccc32)nn2c(C(=O)N[C@@H]3C[C@@H]3F)cnc12` [I-715], for which the “TYK2 MSD OCI-LY10 Dmax %” value was “B (B (90 to >75%))” and the half-maximal degradation concentration (DC50) was under 1 nM.

In the case of `CNc1cc(N2CCc3c(CN4CCC(N5CCC(CN6CCN(C(=O)c7ccc(Cl)c(N8CCC(=O)NC8=O)c7)CC6)CC5)C(F)(F)C4)cccc32)nn2c(C(=O)N[C@@H]3C[C@@H]3F)cnc12` (stereo partly drawn) [I-716], the “TYK2 MSD OCI-LY10 Dmax %” value was “B (B (90 to >75%))” and the 50% degradation concentration (DC50) was under 1 nM.

In the case of `CNc1cc(N2CCc3c(CN4CCC(CCN5CCN(C(=O)c6ccc(Cl)c(N7CCC(=O)NC7=O)c6)CC5)CC4)cccc32)nn2c(C(=O)N[C@@H]3C[C@@H]3F)cnc12` [I-717], the “TYK2 MSD OCI-LY10 Dmax %” value is “C (C (75 to 50%))” and the half-maximal degradation concentration (DC50) was under 10 nM.

Regarding `CNc1cc(N2CCc3c(-c4cc(CN5CCN(c6ccn7c(N8CCC(=O)NC8=O)cnc7c6)CC5)ccn4)cccc32)nn2c(C(=O)N[C@@H]3C[C@@H]3F)cnc12` [I-719], the “TYK2 MSD OCI-LY10 Dmax %” value is “C (C (75 to 50%))” and the DC50 was under 10 nM.

`CNc1cc(N2CCc3c(-c4cc(CN5CCN(c6noc7cc(N8CCC(=O)NC8=O)ccc67)CC5)ccn4)cccc32)nn2c(C(=O)N[C@@H]3C[C@@H]3F)cnc12` [I-723]: the “TYK2 MSD OCI-LY10 Dmax %” value is given as “D (D (<50%))” and the 50% degradation concentration (DC50) was over 100 nM.

Turning to `CNc1cc(N2CCc3c2ccc(F)c3-c2ccc(CN3CCC4(CCN(C(=O)c5cc(C)c(Cl)c(N6CCC(=O)NC6=O)c5)CC4)C(F)(F)C3)cn2)nn2c(C(=O)N[C@@H]3C[C@@H]3F)cnc12` [I-742], the “TYK2 MSD OCI-LY10 Dmax %” value is “C (C (75 to 50%))” and the DC50 fell in the range of 10 to 100 nM.

Take `CNc1cc(N2CCc3c(CCN4CCC(N5CCN(C(=O)c6ccc(Cl)c(N7CCC(=O)NC7=O)c6)CC5)C(F)(F)C4)cccc32)nn2c(C(=O)N[C@@H]3C[C@@H]3F)cnc12` (stereo partly drawn) [I-743]: the “TYK2 MSD OCI-LY10 Dmax %” value is reported as “B (B (90 to >75%))” and the DC50 was under 10 nM.

Take `CNc1cc(N2CCc3c(-c4ccc(CN5CCC6(CCN(C(=O)c7cc(F)c(Cl)c(N8CCC(=O)NC8=O)c7)CC6)C(F)(F)C5)cn4)cc(F)cc32)nn2c(C(=O)N[C@@H]3CC[C@H]3OC)cnc12` [I-744]: the “TYK2 MSD OCI-LY10 Dmax %” value was “B (B (90 to >75%))” and the DC50 is under 10 nM.

Take `CNc1cc(-c2cn(C3CN(C4CCN(C(=O)c5ccc(Cl)c(N6CCC(=O)NC6=O)c5)CC4)C3)c3ccccc23)nn2c(C(=O)N[C@@H]3C[C@@H]3F)cnc12` [I-745]: the “TYK2 MSD OCI-LY10 Dmax %” value is “D (D (<50%))” and the 50% degradation concentration (DC50) is over 100 nM.
